This test concerns rats having their sciatic nerves crushed. In words: Curing effect on rats with crushed sciatic nerve (distance between toes, weight of musculi soleus). Type of test: in vivo, rat. As to conditions: 0.5 mg/kg, ip, average ± S.D. The method, then:
The curing effect of the compound (I) of the invention on the rats having their sciatic nerves crushed, which were used as models caused by peripheral nervous disturbances, was assessed by examining (l) the change in action of the crushed hind leg and (2) the change in weight of the muscle as indicators for the modification of peripheral nerve and for the recovery course of the disturbance.
In the experiment, seven male Wister family rats (6 weeks age) were used per a group. The sciatic nerve of each rat was crushed in accordance with the method of Yamazu et al. (see Kiyomi Yamazu, Takenori Kaneko, Akifumi Kitahara and Isao Ohkawa, Journal of Japanese Pharmacological Society, 72, 259 - -268 (l976)) and in accordance with the method of Hasegawa et al. (see Kazuo Hasegawa, Naoji Mikuni and Yutaka Sakai, Journal of Japanese Pharmacological Society, 74, 72l - 734 (l978)). Specifically, under anesthesia with Pentobarbital (40 mg/kg, i.p.), the left sciatic nerve was exposed at the femur and the site 5 mm centrally from the branch portion between the N. tibialis and the N. suralis was crushed using a modified artery klemme having a width of 2 mm and gap of 0.l mm. Rats subjected to the operation were randomly dispensed to form the groups subjected to test.
The compound (I) of the invention was intraperitoneally administered one time per day from the day on which the nerve was crushed to the 22nd day. The control groups included a group administered with Mecobalamin (produced by Gedeon Richter Ltd.), a group administered with a 20% aqueous solution of propylene glycol (hereinafter referred to as 20% PG) which was used to dissolve the compound (I) of the invention, and a group administered with a 0.9% aqueous saline solution. The predetermined measurements were conducted with the lapse of time after the crushing operation (at the first, fourth, seventh, tenth, l4th, l5th, l7th, l9th 2lst and 28th days).
The distance between the toes was measured, since this is a good indicator showing the modification and recovery of the function of the nerve and the change thereof could conveniently measured with the lapse of time.
The measurement was conducted in accordance with the method of Hasegawa, (Hasegawa, K., Experientia, 34, 750 - 75l (l978)) by measuring the distance from the first toe to the fifth toe of the hind leg.
The ratio of the distance at the crushed side to the distance at the normal side was calculated as a percentage (%), the average values and the standard deviations (S.D.) being shown in Table 5.
It is known that removal of or disturbance in a certain nerve causes atrophy of the muscle controlled by the nerve, and the atrophy is gradually recovered by the recontrol by the nerve. For this reason, the quantitative change in weight of the muscle was selected as an indicator. At 28th day after the operation, the muscli soleus of both hind legs were extracted under anesthesia with Pentobarbital, and the weights of the muscles were weighed. The weight ratio of the muscli soleus at the crushed side to the muscli soleus at the normal side was calculated and represented by percentage (%).

On to `C/C1=C2/[N-][C@H]([C@H](CC(N)=O)[C@@]2(C)CCC(=O)NC[C@@H](C)OP(=O)([O-])O[C@H]2[C@@H](O)[C@@H](n3cnc4cc(C)c(C)cc43)O[C@@H]2CO)[C@]2(C)N=C(/C(C)=C3N=C(/C=C4N=C1[C@@H](CCC(N)=O)C\4(C)C)[C@@H](CCC(N)=O)[C@]\3(C)CC(N)=O)[C@@H](CCC(N)=O)[C@]2(C)CC(N)=O.[CH3-].[Co+3]` [Mecobalamine], for which the “Recovery Rate (%) in Distance between the Fingers” value reads like this: (17th Day) 77.0 ± 10.7%; (19th Day) 88.8 ± 5.1 %. The “Recovery Rate (%) in Weight of the Muscle” value (28th Day) came to 82.7 ± 5.1%.

The values above are taken from patent EP0260606A2, “Medicament for curing neurotic disturbance or disorder comprising sialocylglycerolipid” (MECT CORPORATION, priority 1986, dated 1988).
